In US20250302821A1, “SYNERGISTIC ANTIFUNGAL COMPOSITION AND METHOD” (ST. JUDE CHILDREN'S RESEARCH HOSPITAL, INC., priority 2022, published 2025):

Tests used:
[1] = tested on: fungi; test: fungicidal activity of NK1-antagonists alone; assay type: cell-based; conditions: NK1-antagonist alone, at higher concentrations
[2] = tested on: resistant Candida auris strains; conditions: with fluconazole, voriconazole, itraconazole, cited from earlier work

SMILES	independent fungicidal activity [1]	synergistic enhancement of triazole antifungal activity ([2]; C. auris)	restoration of triazole susceptibility ([2]; several resistant Candida auris strains)
Cc1ccccc1-c1cc(N2CCN(C)CC2)ncc1N(C)C(=O)C(C)(C)c1cc(C(F)(F)F)cc(C(F)(F)F)c1 [netupitant, 2-[3,5-bis(trifluoromethyl)phenyl]-N, 2-dimethyl-N-[4-(2-methylphenyl)-6-(4-methylpiperazin-1-yl)pyridin-3-yl]propanamide]	fungicidal activity	–	–
C[C@@H](O[C@H]1OCCN(Cc2nc(=O)[nH][nH]2)[C@H]1c1ccc(F)cc1)c1cc(C(F)(F)F)cc(C(F)(F)F)c1 [aprepitant, 5-[[(2R,3S)-2-[(1R)-1-[3,5-bis(trifluoromethyl)phenyl]ethoxy]-3-(4-fluorophenyl)-4-morpholinyl]methyl]-1,2-dihydro-3H-1,2,4-triazol-3-one]	–	synergistically enhance the activity	restore fluconazole-, voriconazole-, and itraconazole-susceptibility
C[C@@H](OC[C@@]1(c2ccccc2)CC[C@]2(CCC(=O)N2)CN1)c1cc(C(F)(F)F)cc(C(F)(F)F)c1 [rolapitant, (5S,8S)-8-[[(1R)-1-[3,5-bis(trifluoromethyl)phenyl]ethoxy]methyl]-8-phenyl-1,9-diazaspiro[4. 5]decan-2-one]	fungicidal activity	–	–
